For two compounds, inhibition results are on record in ChEMBL document CHEMBL4387741, “Optimization of novel reversible Bruton's tyrosine kinase inhibitors identified using Tethering-fragment-based screens” (Bioorg Med Chem, 2019).

Experiment [1] relates to Epidermal growth factor receptor (Homo sapiens), P00533 [UNDEFINED MUTATION]. Put plainly: Inhibition of human partial length EGFR L747-T751del/Sins mutant expressed in bacterial expression system at 1 uM by Kinomescan method relative to control.
For experiment [2], the system named is Receptor-type tyrosine-protein kinase FLT3 (Homo sapiens), P36888 [K663Q]. In words: Inhibition of human partial length FLT3 K663Q mutant (V592 to Y969 residues) expressed in bacterial expression system at 1 uM by Kinomescan method relative to control.
For experiment [3], the target named is Mitotic checkpoint serine/threonine-protein kinase BUB1 (Homo sapiens) (UniProt O43683). Put plainly: Inhibition of wild-type human partial length BUB1 (Q724 to K1085 residues) expressed in mammalian expression system at 1 uM by Kinomescan method relative to control.
The target in experiment [4] is Serine/threonine-protein kinase MARK2 (Homo sapiens) (UniProt Q7KZI7). Put plainly: Inhibition of wild-type human partial length MARK2 (M1 to R450 residues) expressed in bacterial expression system at 1 uM by Kinomescan method relative to control.
In experiment [5] the target is Proto-oncogene tyrosine-protein kinase Src (Homo sapiens) (UniProt P12931). In words: Inhibition of wild-type human partial length SRC (L240 to L536 residues) expressed in bacterial expression system at 1 uM by Kinomescan method relative to control.
For experiment [6], the target named is Phosphorylase b kinase gamma catalytic chain, liver/testis isoform (Homo sapiens) (UniProt P15735). Put plainly: Inhibition of wild-type human partial length PHKG2 (M1 to W300 residues) expressed in bacterial expression system at 1 uM by Kinomescan method relative to control.
Experiment [7] concerns the target Serine/threonine-protein kinase 16 (Homo sapiens) (UniProt O75716). In words: Inhibition of wild-type human partial length STK16 (G11 to I305 residues) expressed in bacterial expression system at 1 uM by Kinomescan method relative to control.
In experiment [8] the target is Tyrosine-protein kinase ABL2 (Homo sapiens) (UniProt P42684). In words: Inhibition of wild-type human ABL2 (A248 to G542 residues) expressed in bacterial expression system at 1 uM by Kinomescan method relative to control.
Experiment [9] has as its target Rho-associated protein kinase 1 (Homo sapiens) (UniProt Q13464). Put plainly: Inhibition of wild-type human partial length ROCK1 (M1 to R415 residues) expressed in mammalian expression system at 1 uM by Kinomescan method relative to control.
Experiment [10] has as its target Serine/threonine-protein kinase NIM1 (Homo sapiens) (UniProt Q8IY84). Put plainly: Inhibition of wild-type human partial length NIM1 (Q44 to N355 residues) expressed in mammalian expression system at 1 uM by Kinomescan method relative to control.
Experiment [11] has as its target Serine/threonine-protein kinase haspin (Homo sapiens) (UniProt Q8TF76). In words: Inhibition of wild-type human partial length HASPIN (I452 to K798 residues) expressed in mammalian expression system at 1 uM by Kinomescan method relative to control.
Experiment [12] has as its target Wee1-like protein kinase (Homo sapiens) (UniProt P30291). In words: Inhibition of wild-type human partial length WEE1 (M291 to K575 residues) expressed in bacterial expression system at 1 uM by Kinomescan method relative to control.
The target in experiment [13] is Cyclin-dependent kinase 11B (Homo sapiens) (UniProt P21127). Put plainly: Inhibition of wild-type human partial length CDC2L1 (P353 to G692 residues) expressed in bacterial expression system at 1 uM by Kinomescan method relative to control.
Experiment [14] deals with Receptor-interacting serine/threonine-protein kinase 1 (Homo sapiens) (UniProt Q13546). Put plainly: Inhibition of wild-type human partial length RIPK1 (M1 to K305 residues) expressed in bacterial expression system at 10 uM by Kinomescan method relative to control.
The target of experiment [15] is cAMP-dependent protein kinase catalytic subunit alpha (Homo sapiens) (UniProt P17612). In words: Inhibition of wild-type human partial length PKAC-alpha (G10 to F351 residues) expressed in bacterial expression system at 10 uM by Kinomescan method relative to control.
Experiment [16] concerns the target Serine/threonine-protein kinase Chk1 (Homo sapiens) (UniProt O14757). In words: Inhibition of wild-type human partial length CHEK1 (M1 to G289 residues) expressed in bacterial expression system at 10 uM by Kinomescan method relative to control.
The target of experiment [17] is Homeodomain-interacting protein kinase 3 (Homo sapiens) (UniProt Q9H422). Put plainly: Inhibition of wild-type human partial length HIPK3 (M153 to N562 residues) expressed in mammalian expression system at 10 uM by Kinomescan method relative to control.
Experiment [18] concerns the target Serine/threonine-protein kinase PLK3 (Homo sapiens) (UniProt Q9H4B4). In words: Inhibition of wild-type human partial length PLK3 (A42 to L334 residues) expressed in mammalian expression system at 10 uM by Kinomescan method relative to control.
Experiment [19] concerns Tyrosine-protein kinase ABL1 (Homo sapiens), P00519 [F317L]. In words: Inhibition of human non-phosphorylated ABL1 F317L mutant (S229 to K512 residues) expressed in mammalian expression system at 10 uM by Kinomescan method relative to control.
Experiment [20] has as its target Testis-specific serine/threonine-protein kinase 1 (Homo sapiens) (UniProt Q9BXA7). In words: Inhibition of wild-type human full length TSSK1B (M1 to Q367 residues) expressed in bacterial expression system at 10 uM by Kinomescan method relative to control.
Experiment [21] has as its target STE20-like serine/threonine-protein kinase (Homo sapiens) (UniProt Q9H2G2). Put plainly: Inhibition of wild-type human partial length SLK (S14 to A307 residues) expressed in bacterial expression system at 10 uM by Kinomescan method relative to control.
Experiment [22] has as its target Serine/threonine-protein kinase 32A (Homo sapiens) (UniProt Q8WU08). In words: Inhibition of wild-type human full length YANK1 (M1 to L396 residues) expressed in mammalian expression system at 10 uM by Kinomescan method relative to control.
In experiment [23] the target is Ribosomal protein S6 kinase alpha-1 (Homo sapiens) (UniProt Q15418). Put plainly: Inhibition of wild-type human partial length N-terminal RSK1 Kinase domain 1 (M1 to E388 residues) expressed in bacterial expression system at 10 uM by Kinomescan method relative to control.
Experiment [24] deals with Mast/stem cell growth factor receptor Kit (Homo sapiens), P10721 [UNDEFINED MUTATION]. Put plainly: Inhibition of human partial length KIT V559D/V654 double mutant (Y545 to D952 residues) expressed in bacterial expression system at 10 uM by Kinomescan method relative to control.
For experiment [25], the system named is Phosphatidylinositol 4,5-bisphosphate 3-kinase catalytic subunit alpha isoform (Homo sapiens), P42336 [C420R]. In words: Inhibition of human partial length PIK3CA C420R mutant (R108 to N1068 residues) expressed in mammalian expression system at 10 uM by Kinomescan method relative to control.
Experiment [26] addresses Serine/threonine-protein kinase 17B (Homo sapiens) (UniProt O94768). Put plainly: Inhibition of wild-type human full length DRAK2 (M1 to C372 residues) expressed in bacterial expression system at 10 uM by Kinomescan method relative to control.

As usually defined, the inhibition is the change of the read-out against control, counted positive when it falls. A higher inhibition goes with a strong effect.

Testis-specific serine/threonine-protein kinase 1 (Homo sapiens), sequence (Q9BXA7 whole entry, the tested form may be a part): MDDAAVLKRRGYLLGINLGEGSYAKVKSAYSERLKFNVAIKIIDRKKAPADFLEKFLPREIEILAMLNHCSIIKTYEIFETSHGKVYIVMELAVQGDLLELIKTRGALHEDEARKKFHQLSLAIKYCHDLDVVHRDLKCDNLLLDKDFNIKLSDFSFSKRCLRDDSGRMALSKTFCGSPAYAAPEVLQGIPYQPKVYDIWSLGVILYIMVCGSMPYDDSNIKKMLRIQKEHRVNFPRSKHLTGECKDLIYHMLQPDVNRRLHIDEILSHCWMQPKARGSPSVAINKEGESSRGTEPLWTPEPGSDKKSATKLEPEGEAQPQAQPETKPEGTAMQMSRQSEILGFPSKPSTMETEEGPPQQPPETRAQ
Ribosomal protein S6 kinase alpha-1 (Homo sapiens), sequence (Q15418 whole entry, the tested form may be a part): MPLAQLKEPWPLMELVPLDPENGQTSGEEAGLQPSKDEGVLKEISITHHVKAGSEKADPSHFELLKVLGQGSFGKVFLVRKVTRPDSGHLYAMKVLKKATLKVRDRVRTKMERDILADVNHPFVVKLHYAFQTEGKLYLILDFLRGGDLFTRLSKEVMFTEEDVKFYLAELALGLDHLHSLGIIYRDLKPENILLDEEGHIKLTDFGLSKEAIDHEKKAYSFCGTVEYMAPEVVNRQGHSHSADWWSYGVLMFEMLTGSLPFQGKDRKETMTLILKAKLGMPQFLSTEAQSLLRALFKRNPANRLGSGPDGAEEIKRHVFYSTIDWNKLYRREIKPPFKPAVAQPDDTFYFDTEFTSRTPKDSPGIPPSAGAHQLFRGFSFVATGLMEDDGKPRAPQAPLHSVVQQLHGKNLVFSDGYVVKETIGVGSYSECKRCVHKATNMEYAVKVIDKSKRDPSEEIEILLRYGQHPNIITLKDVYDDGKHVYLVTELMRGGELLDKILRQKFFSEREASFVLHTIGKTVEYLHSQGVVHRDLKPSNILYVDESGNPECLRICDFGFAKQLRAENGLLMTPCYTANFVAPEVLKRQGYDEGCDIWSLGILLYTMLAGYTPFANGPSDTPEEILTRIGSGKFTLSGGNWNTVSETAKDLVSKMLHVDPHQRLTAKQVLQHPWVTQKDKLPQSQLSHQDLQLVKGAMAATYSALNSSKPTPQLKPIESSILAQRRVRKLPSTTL
Serine/threonine-protein kinase haspin (Homo sapiens), sequence (Q8TF76 whole entry, the tested form may be a part): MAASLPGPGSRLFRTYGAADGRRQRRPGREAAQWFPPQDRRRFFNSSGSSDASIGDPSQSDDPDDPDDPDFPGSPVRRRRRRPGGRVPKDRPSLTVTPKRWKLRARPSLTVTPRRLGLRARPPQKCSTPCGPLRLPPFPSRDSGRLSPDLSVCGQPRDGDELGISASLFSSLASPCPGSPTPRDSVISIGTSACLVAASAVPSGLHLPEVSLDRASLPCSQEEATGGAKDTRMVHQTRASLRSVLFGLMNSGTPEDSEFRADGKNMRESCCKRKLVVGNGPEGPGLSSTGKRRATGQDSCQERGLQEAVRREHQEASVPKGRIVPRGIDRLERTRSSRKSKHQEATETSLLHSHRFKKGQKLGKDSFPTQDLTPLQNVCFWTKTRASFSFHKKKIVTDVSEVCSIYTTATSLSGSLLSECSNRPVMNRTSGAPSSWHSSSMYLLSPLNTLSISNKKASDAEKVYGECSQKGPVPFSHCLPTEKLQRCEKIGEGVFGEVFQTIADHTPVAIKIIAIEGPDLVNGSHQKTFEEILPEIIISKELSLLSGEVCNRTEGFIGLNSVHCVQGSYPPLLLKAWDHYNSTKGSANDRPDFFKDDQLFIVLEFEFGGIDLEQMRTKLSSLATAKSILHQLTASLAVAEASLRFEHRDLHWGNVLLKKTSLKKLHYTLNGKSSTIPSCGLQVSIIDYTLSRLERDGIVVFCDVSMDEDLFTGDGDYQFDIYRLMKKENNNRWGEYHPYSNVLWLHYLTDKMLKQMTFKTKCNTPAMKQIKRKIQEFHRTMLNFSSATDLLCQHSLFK
Homeodomain-interacting protein kinase 3 (Homo sapiens), sequence (Q9H422 whole entry, looked up, the tested form may be a part): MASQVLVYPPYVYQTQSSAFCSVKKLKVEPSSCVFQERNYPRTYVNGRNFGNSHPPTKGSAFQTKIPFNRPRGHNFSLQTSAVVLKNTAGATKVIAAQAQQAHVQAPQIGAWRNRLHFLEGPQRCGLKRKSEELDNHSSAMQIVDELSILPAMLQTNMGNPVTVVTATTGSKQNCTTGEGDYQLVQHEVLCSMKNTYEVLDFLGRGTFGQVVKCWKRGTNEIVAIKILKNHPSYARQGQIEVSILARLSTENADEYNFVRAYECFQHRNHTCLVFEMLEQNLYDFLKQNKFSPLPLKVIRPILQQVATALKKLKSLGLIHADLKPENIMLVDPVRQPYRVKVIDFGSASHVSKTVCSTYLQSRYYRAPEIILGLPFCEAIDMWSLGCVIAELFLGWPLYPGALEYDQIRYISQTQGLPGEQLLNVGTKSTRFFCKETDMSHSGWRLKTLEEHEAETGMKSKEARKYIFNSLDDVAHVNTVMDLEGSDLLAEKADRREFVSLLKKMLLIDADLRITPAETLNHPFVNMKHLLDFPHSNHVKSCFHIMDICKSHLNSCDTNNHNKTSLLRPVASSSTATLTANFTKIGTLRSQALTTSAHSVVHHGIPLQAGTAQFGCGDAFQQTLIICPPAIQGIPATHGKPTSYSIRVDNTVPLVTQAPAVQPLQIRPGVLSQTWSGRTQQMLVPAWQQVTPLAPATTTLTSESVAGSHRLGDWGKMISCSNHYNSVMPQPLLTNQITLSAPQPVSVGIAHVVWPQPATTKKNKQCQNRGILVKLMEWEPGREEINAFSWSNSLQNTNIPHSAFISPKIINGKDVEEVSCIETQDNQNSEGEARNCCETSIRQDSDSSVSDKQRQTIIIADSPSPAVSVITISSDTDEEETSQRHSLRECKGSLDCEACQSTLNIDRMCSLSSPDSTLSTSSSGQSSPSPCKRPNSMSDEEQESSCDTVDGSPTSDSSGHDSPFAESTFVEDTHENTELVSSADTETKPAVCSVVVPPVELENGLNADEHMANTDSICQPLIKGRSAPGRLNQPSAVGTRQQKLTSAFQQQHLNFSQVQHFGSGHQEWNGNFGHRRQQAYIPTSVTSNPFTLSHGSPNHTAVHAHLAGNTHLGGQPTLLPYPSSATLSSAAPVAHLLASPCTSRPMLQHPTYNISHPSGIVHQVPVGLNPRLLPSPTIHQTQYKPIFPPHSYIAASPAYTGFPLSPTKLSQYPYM
Serine/threonine-protein kinase 17B (Homo sapiens), sequence (O94768 whole entry, the tested form may be a part): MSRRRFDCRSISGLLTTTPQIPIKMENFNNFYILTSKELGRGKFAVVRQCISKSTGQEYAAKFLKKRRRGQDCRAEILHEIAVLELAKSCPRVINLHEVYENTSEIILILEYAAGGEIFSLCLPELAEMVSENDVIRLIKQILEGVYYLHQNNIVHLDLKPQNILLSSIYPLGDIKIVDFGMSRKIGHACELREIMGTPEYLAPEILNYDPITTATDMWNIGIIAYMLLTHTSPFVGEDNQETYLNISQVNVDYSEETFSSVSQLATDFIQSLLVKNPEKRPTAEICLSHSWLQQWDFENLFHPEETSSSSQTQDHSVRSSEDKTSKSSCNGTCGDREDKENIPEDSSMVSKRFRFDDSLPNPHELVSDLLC
Serine/threonine-protein kinase NIM1 (Homo sapiens), sequence (Q8IY84 whole entry, the tested form may be a part): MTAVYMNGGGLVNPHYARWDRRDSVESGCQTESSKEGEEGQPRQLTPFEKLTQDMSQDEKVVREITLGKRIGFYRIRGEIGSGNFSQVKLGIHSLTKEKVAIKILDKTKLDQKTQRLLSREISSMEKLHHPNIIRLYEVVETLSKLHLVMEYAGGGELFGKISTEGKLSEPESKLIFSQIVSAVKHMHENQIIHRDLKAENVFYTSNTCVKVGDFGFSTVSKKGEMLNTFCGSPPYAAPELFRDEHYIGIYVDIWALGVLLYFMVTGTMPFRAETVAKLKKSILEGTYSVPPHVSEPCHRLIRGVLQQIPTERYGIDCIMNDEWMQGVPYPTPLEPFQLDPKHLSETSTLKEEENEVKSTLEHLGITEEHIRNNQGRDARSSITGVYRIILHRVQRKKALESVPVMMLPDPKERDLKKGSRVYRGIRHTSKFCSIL
Mast/stem cell growth factor receptor Kit (Homo sapiens), P10721 [UNDEFINED MUTATION], sequence (P10721 whole entry, looked up, stated change not applied, the tested form may be a part, canonical isoform): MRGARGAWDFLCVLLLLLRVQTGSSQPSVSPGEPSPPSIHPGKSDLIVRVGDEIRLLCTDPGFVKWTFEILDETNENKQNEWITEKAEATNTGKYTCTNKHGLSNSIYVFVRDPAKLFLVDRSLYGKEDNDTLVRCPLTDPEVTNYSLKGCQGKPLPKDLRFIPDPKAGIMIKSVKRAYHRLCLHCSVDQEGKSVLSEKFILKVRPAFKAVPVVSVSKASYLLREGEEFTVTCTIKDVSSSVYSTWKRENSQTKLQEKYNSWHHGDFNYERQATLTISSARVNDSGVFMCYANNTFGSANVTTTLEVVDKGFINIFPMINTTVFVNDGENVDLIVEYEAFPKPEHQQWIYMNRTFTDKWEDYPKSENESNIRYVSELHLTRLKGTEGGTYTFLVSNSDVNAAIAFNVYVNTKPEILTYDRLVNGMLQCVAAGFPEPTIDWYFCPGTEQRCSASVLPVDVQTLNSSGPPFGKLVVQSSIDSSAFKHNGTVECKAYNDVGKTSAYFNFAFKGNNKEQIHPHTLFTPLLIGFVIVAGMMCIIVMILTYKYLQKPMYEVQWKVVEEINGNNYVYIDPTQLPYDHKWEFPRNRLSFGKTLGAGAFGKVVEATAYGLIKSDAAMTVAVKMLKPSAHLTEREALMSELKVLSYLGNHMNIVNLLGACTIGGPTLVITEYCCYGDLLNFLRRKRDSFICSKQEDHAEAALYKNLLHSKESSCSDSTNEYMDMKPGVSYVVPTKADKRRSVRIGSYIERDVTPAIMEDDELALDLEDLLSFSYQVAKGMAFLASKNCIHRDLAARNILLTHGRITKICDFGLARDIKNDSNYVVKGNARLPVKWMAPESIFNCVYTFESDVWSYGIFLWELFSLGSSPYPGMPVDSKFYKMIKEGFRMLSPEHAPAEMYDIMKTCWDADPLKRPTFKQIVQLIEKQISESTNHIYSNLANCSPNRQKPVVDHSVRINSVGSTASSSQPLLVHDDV

In the case of `O=C(Nc1cccc([C@@H]2CN(c3ncnc4[nH]ccc34)CCN2CCO)c1)Nc1c(F)cccc1N1CCCC1`, the inhibition in experiment [1] worked out at 76%; in experiment [2] it was 42%; in experiment [3], 87%; in experiment [4] it was 69%; in experiment [5], 71%; in experiment [6], 100%. The inhibition in experiment [7] was 82%; in [8], 97%; in [9], 71%; in [10], 93%; in experiment [11], 78%; in experiment [12] it was 100%. In experiment [13], this compound came in with an inhibition of 100%.

On to `O=C(Nc1cccc([C@H]2CCCN(c3ncnc4[nH]ccc34)C2)c1)Nc1ccccc1N1CCCC1`, for which the inhibition in experiment [14] was 100%; in [15] it was 98%; in experiment [16], 100%; in experiment [17], 47%; in experiment [18] it was 65%; in experiment [19], 89%. Also, the inhibition in experiment [20] came out at 100%; in experiment [21] it was 28%; in experiment [22], 98%; in [23] it was 42%; in [24], 26%; in experiment [25], 85%. In [26], this compound showed an inhibition of 74%.
